Laboratory results published in US11197965B2, “Method and system for the administration of a pulmonary surfactant by atomization” (CHIESI FARMACEUTICI S.p.A., priority 2013, dated 2021).

Conditions: in vivo
Description: Old piglets, weighing between 0.8-2.0 kg, were used.
The procedure was carried out as follows: piglets inhaled 10 mg of lidocaine and lidocaine gel was applied in the oropharynx just before the insertion of a Mayo oropharyngeal atomization cannula. The piglets were then laid on one side according to the randomization protocol, and correct positioning of the oropharyngeal cannula just above the larynx entrance was assessed by fiberbronchoscopy. Curosurf® was thoroughly mixed with 300 MBq of Tc-labeled nanocolloid and the animals received a total of 200 mg/kg Curosurf® (80 mg/mL) through an atomization catheter placed inside the oropharyngeal airway. The surfactant atomization procedure was divided in 4 stages (doses): each stage consisted in the delivery of one fourth of the total surfactant dose with the piglet breathing spontaneously on nasal-CPAP (via special “snout-mask”, see details in methods), followed by 5 minutes of PS-ventilation with PEEP (via snout-mask) to avoid atelectasis and promote delivery of the surfactant to the lower airways. When all the surfactant had been delivered, the oropharyngeal cannula was removed and the piglet received PS-ventilation for 15 min. FiO2 was adjusted to maintain saturation above 85%. To secure the airway under transportation to the gamma camera and scintigraphy, the animals were endotracheally intubated and manually ventilated with a Laerdal Silicone Resuscitator.
The piglets were premedicated with i.m. ketamine, midazolam, and atropine, an ear vein was cannulated, and the animals were sedated with a continuous iv. infusion of dexmedetomedine and ketamine. Sedation was supplemented with small intermittent boluses of iv. propofol when needed. An arterial catheter was placed in the femoral artery under local anaesthesia. Invasive blood pressure, pulse oximetry, cerebral oximetry (INVOS), and the diaphragmatic electrical activity (NAVA catheter) were monitored in all animals.
Group-assignment was random, and arranged so that pigs from the same litter were distributed evenly among the groups, when possible. […]

Q: What does the source list for poractant alfa [Curosurf]?
A: amount of surfactant deposited into the lung compartment: more than 61%; percentage of surfactant deposited, pharynx (mean) (200 mg/kg): 11.1 percentage; percentage of surfactant deposited, trachea (mean) (200 mg/kg): 13.5 percentage
